Results from patent US10494610B2, “Three dimensional matrix for cancer stem cells” (UNIVERSITY OF SOUTH CAROLINA, priority 2013, dated 2019).
No end group written: not given here.

How the values were obtained:
4T1 cells [1] = test: Flow cytometry of CD44+/CD24- cells isolated from the gel; assay type: cell-based, mouse; conditions: 4T1, 9 days after encapsulation in 5 kPa gel with or without conjugated peptide (about 6% without gel)
Method: Cells encapsulated in the gel were fixed with 4% paraformaldehyde for 30 min followed by washing with PBS. Next, the gel was incubated in oxidative degradation solution (0.1M CoCl in 20% hydrogen peroxide). After the gel was degraded, cells were washed three times with cold PBS containing 5% BSA. MCF7 cells were incubated with phycoerythrin (PE) mouse anti-human CD24 and fluorescein isothiocyanate (FITC) mouse anti-human CD44 (BD Biosciences, Franklin Lakes, N.J.), and 4T1 cells were incubated with PE-anti-mouse CD24 and FITC-anti-mouse CD44 (eBioscience, San Diego, Calif.) in 100 μl PBS with 5% BSA for 45 min on ice in the dark. Cells were then washed with cold PBS with 5% BSA three times and analyzed by a flow cytometer (FC500, Beckman Coulter, Brea, Calif.). Flow cytometry was done multiple times on each sample to ascertain reproducibility of the results.

4T1 cells [2] = test: RT-qPCR mRNA expression of CSC related markers in encapsulated cells; assay type: cell-based, mouse; conditions: for EGFR mRNA marker expression: 4T1 in peptide-conjugated gels
Method: Total cellular RNA of the gel samples was isolated using TRIzol (Invitrogen). 250 ng of the extracted purified RNA was reverse transcribed to cDNA by SuperScript II Reverse Transcriptase (Invitrogen) with the random primers. The obtained cDNA was subjected to real time quantitative polymerase chain reaction (RT-qPCR) amplification with appropriate gene specific primers. RT-qPCR was performed to analyze the differential expression of CSC markers CD44 (4T1 and MCF7), CD24 (4T1), ABCG2 (4T1 and MCF7), and SCA1 (4T1) genes with SYBR green RealMasterMix (Eppendorf, Hamburg, Germany) using Bio-Rad iCycler PCR system (Bio-Rad, Hercules, Calif.). The expression level of GAPDH gene was used as an internal control. The primers for real time PCR were designed by Primer 3 software. The following forward and reverse primers synthesized by Integrated DNA technologies (Coralville, Iowa) were used: mouse GAPDH: forward 5′-CATGGCCTTCCGTGTTCCTA-3′ (SEQ ID NO: 1) and reverse 5′-CCTGCTTCACCACCTTCTTGA-3′ (SEQ ID NO: 2); mouse CD44: forward 5′-GAATGTAACCTGCCGCTACG-3′ (SEQ ID NO: 3) and reverse 5′-GGA GGT GTT GGA CGT GAC-3′ (SEQ ID NO: 4); mouse CD24: forward 5′-CTTCTGGCACTGCTCCTACC-3′ (SEQ ID NO: 5) and reverse 5′-GAGAGAGAGCCAGGAGACCA-3′ (SEQ ID NO: 6); mouse ABCG2: forward 5′-AGCAGCAAGGAAAGATCCAA-3′ (SEQ ID NO: 7) and reverse 5′-GGAATACCGAGGCTGATGAA-3′ (SEQ ID NO: 8); mouse SCA1: forward 5′-TGG ACA CTT CTC ACA CTA-3′ (SEQ ID NO: 9) and reverse 5′-CAGAGCAAGAGGGTCTGCAGGAG-3′ (SEQ ID NO: 10); human GAPDH forward 5′-GAGTCAACGGATTTGGTCGT-3′ (SEQ ID NO: 11) and reverse 5′-TTGATTTTGGAGGGATCTCG-3′ (SEQ ID NO: 12); human CD44 forward 5′-GGCTTTCAATAGCACCTTGC-3′ (SEQ ID NO: 13) and reverse 5′-ACACCCCTGTGTTGTTTGCT-3′ (SEQ ID NO: 14); human ABCG2 forward 5′-CACCTTATTGGCCTCAGGAA-3′ (SEQ ID NO: 15) and reverse 5′-CCTGCTTGGAAGGCTCTATG-3′ (SEQ ID NO: 16). The relative gene expression levels were quantified by the 2^-ddCT method as described. The relative gene expressions were expressed as fold difference compared with that at time zero.
Total cellular RNA of the gel samples was isolated using TRIzol (Invitrogen). 250 ng of the extracted purified RNA was reverse transcribed to cDNA by SuperScript II Reverse Transcriptase (Invitrogen) with the random primers. The obtained cDNA was subjected to real time quantitative polymerase chain reaction (RT-qPCR) amplification with the appropriate gene specific primers. RT-qPCR was performed to analyze the differential expression of CSC markers CD44, CD24, ABCG2, and SCA1 genes with SYBR green RealMasterMix (Eppendorf, Hamburg, Germany) using Bio-Rad iCycler PCR system (Bio-Rad, Hercules, Calif.). The expression level of GAPDH gene was used as an internal control. The primers for real time PCR were designed by Primer 3 software. The forward and reverse primer sequences, listed in the table below, were synthesized by Integrated DNA technologies (Coralville, Iowa). The relative gene expression levels were quantified by the 2^(−ΔΔCT) method. Briefly, ΔCT was calculated as ΔCT=CT^target gene−CT^GAPDH. ΔΔCT of the target gene was calculated as ΔΔCT=ΔCT^experimental group−ΔCT^reference group. The reference was the first time point (right after cells were encapsulated in the gel). The relative gene expression (fold-change compared to the reference time point) was calculated as 2^(−ΔΔCT).

4T1 cells [3] = test: Tumor growth in vivo of cell encapsulated gels implanted subcutaneously; design: species or system syngeneic Balb/C mice; conditions: 4T1 cells in dPEGDA gel, subcutaneous, 4 weeks after inoculation
Method: To test tumor formation ability of 4T1 cells in the hydrogel, the cell encapsulated gels were cultured in vitro in the stem cell medium for 9 days as described above. After tumorsphere formation, gel pieces containing 1×10^5 tumorsphere cells were implanted subcutaneously in syngeneic Balb/C mice (6 mice/group). Groups included 4T1 tumorsphere cells, grown on ultra-low attachment plates, and injected subcutaneously (control group), degradable version of the PEGDA gel (dPEGDA) without tumor cells (control group), 4T1 cells encapsulated in the dPEGDA and cultured in vitro for 9 days prior to implantation, and 4T1 cells encapsulated in CD44BP-conjugated dPEGDA gel and cultured in vitro for 9 days prior to implantation. When tumors became measurable, tumor size and growth rate were measured and calculated. Mice were euthanized when tumor volume reached above 1000 mm^3 or 4 weeks after inoculation.

[4] = 4T1 in PEGDA gel with peptide, 9 days
[5] = 4T1 in peptide-conjugated gel, 9 days
[6] = 4T1 in peptide-conjugated gel, 3 days

Substance	percentage of CD44+/CD24− cells (4T1 cells [1])	CD44 mRNA marker expression (4T1 cells [2]; [4])	expression of integrin αV (4T1 cells [2]; 4T1 in peptide-conjugated gel)	expression of integrin β3 (4T1 cells [2]; 4T1 in peptide-conjugated gel)	expression of E-Cadherin (4T1 cells [2]; [5])	EGFR mRNA marker expression (4T1 cells [2]; 9 days)	ABCG2 mRNA marker expression (4T1 cells [2]; [4])	CD24 mRNA marker expression (4T1 cells [2]; [4])	SCA1 mRNA marker expression (4T1 cells [2]; [4])	CD44 mRNA marker expression (4T1 cells [2]; 4T1 in PEGDA gel with peptide, 9 days, listed as CD44BP)	tumor formation in vivo (4T1 cells [3])	tumor formation in vivo (4T1 cells [3]; listed as CD44BP)	expression of E-Cadherin (4T1 cells [2]; [6])	expression of N-Cadherin (4T1 cells [2]; [6])
GRGDS [IBP]	5.4%	decreased	significantly increased	significantly increased	low expressions	decreased								
RLVSYNGIIFFLK [conj CD44BP] (RLVSYNGIIFFLK-NH2; also: conjugated to PEGDA gel, site not given here)	6.5%	decreased expressions	reduced	reduced	low expressions	decreased	decreased expressions	increased expression	decreased expressions	decreased	did not form a visible tumor	Tumor growth was not observed		
WQPPRARI [FHBP]	about 21%	significantly higher	reduced	reduced	much higher than that in other groups	increased							decreased	increased
